In patent US20230365571A1, “COMPOUNDS AND COMPOSITIONS AS Sppl2a INHIBITORS” (Novartis AG, priority 2020, published 2023):

Experiments:
Format in all cases: cell-based
Sppl2a CD74 = target: T1, Sppl2a CD74 (Mus musculus, UniProt Q9JJF9); test: CD74/p8 mouse whole blood assay, flow cytometry format; conditions: Balb/c mouse whole blood, 5 h, CD74 signal on gated live B cells
T1 construct: Mouse whole blood Balb/c mice (sodium citrate) was ordered by Bioreclamation LLC; tissue Bioreclamation LLC
T1 sequence (Q9JJF9 26-523): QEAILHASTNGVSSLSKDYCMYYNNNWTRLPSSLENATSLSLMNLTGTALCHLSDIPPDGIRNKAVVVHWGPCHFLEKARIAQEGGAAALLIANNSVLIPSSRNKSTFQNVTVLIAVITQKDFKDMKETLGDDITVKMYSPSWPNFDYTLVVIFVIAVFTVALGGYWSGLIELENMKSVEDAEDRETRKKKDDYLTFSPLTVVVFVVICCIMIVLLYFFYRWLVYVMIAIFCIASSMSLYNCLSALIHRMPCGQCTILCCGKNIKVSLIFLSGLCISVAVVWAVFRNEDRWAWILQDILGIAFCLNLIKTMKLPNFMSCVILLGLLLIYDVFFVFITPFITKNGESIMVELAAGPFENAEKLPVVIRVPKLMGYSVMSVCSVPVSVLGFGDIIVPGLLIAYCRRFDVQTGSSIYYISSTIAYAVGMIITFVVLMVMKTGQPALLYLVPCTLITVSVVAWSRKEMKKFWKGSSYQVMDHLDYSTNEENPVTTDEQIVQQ
Protocol: CD74/p8 Mouse Whole Blood Assay: Flow Cytometry Format
Mouse whole blood Balb/c mice (sodium citrate) was ordered by Bioreclamation LLC; USA. The blood was used the next day upon receipt (stored at 4° C.). 100 μL blood were transferred in 96 well format plate, where compounds, an 11 point dilutions down from 30 μM, to be tested were previously deposited. The plate was incubated for 5 h in the incubator at 37° C., 5% CO2 under continuous motion. After the incubation the blood was diluted with RBC Lysis Buffer (Amined; Cat. Nr 3-13F00-H or BD; Cat. Nr 555899). The solution was mixed by pipetting and incubated 10 min in the 37° C. incubator. The white blood cells were sedimented for 3 min at 2000 rpm. After removing the supernatant the cell pellet was resuspended and washed twice in RCB Buffer and kept≈ 5 min at room temperature, followed by a centrifugation for 2 min at 2000 rpm. The cell pellet was then resuspend in D-PBS and centrifuged twice. Finally, the cells were taken up in of D-PBS/0.5% inactivated fetal bovine serum/2 mM EDTA. The cell suspension was treated with Live/Dead fixable stain (Life Technologies, >470 nm version), B cells were identified by surface staining with an anti-B220 antibody coupled to APC fluorofor. After staining, the cells were extensively washed with PBS. The cells were permeabilized and fixed in FACS lysing buffer; (BD; #349202, dil 1:10 in water) and labelled with an anti CD74, FITC labelled antibody, washed once more with diluted FACS lysing buffer and spin down. The cell pellet was washed with D-PBS/0.5% inactivated fetal bovine serum/2 mM EDTA and PBS prior to the analysis in a flow cytometer. The compound concentrations were plotted against the intensity (medium fluorescence intensity) of the CD74 signal on the gated life B cell and IC50 were determined by fitting data for a 11 concentrations dose response.

human SPPL2a [1] = target: T2, human SPPL2a (Homo sapiens, UniProt Q8TCT8); test: Sppl2a TL (translocation) imaging assay in U-2 OS cells; set-up: expressed in transfected cells; conditions: U-2 OS cells expressing human SPPL2a and EGFP-TNFα(aa1-76) NTF substrate; 24 h
T2 sequence (Q8TCT8 26-520): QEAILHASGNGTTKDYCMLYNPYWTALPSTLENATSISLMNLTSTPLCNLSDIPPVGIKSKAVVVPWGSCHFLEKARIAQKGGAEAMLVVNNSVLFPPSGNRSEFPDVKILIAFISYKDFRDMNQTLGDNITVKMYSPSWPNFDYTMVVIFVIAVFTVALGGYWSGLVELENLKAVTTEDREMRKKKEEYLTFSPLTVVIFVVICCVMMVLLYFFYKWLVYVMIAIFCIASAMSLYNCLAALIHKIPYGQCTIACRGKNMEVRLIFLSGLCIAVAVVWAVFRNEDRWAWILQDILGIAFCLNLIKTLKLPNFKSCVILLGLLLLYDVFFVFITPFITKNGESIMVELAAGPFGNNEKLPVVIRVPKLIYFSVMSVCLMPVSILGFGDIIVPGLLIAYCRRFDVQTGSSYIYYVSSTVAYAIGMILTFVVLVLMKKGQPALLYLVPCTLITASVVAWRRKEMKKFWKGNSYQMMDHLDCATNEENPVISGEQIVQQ
In short: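 U-2 OS cells stably expressing human SPPL2a plus doxycycline-induced EGFP-TNFα(aa1-76) NTF, treated 24 h at 37 °C with inhibitor (100 μM–1 nM, 11 points, 0.9% DMSO, 5 μg/mL doxycycline). Imaging of nuclear-minus-cytoplasmic EGFP intensity; % inhibition versus 0.5 μM LY-411,575 and DMSO, IC50 by nonlinear regression; CC50 from cell count.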

human SPPL2a [2] = target: T2, human SPPL2a; test: Sppl2a RGA (reporter gene assay) in HEK293 cells; set-up: expressed in transfected cells; host or cells: HEK293 (transient); conditions: NT-TNF-VP16-Gal4 substrate, Gal4-luciferase reporter, 24 h
In short: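 HEK293 cells transiently co-transfected with human SPPL2a, NT-TNF-VP16-Gal4 substrate and Gal4-luciferase reporter, compound added within 5 h. After 24 h at 37 °C, luciferase luminescence measured; IC50 from concentration versus normalized luminescence.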

IC50 (Sppl2a CD74)	IC50 (human SPPL2a [1])	IC50 (human SPPL2a [2])	Structure (SMILES)
269 nM	7 nM	3 nM	Cc1nc(C(=O)NC(C)C)sc1C(=O)NC[C@H](C(=O)N[C@@H]1C(=O)N2CCCN2Cc2ccccc21)C(F)(F)F [Example 14, N^2-Isopropyl-4-methyl-N^5-((R)-3,3,3-trifluoro-2-(((S)-11-oxo-2,3,10,11-tetrahydro-1H,5H-benzo[d]pyrazolo [1,2-a][1,2]diazepin-10-yl)carbamoyl)pro-pyl)thiazole-2,5-dicarboxamide]
659 nM	11 nM	8 nM	CCNC(=O)c1nc(C)c(C(=O)NC[C@@H](C)C(=O)N[C@@H]2C(=O)N3CCCN3Cc3ccccc32)s1 [Example 16, N^2-Ethyl-4-methyl-N^5-((R)-2-methyl-3-oxo-3-(((S)-11-oxo-2,3,10,11-tetrahydro-1H,5H-benzo[d]pyrazolo [1,2-a][1,2]diazepin-10-yl)amino)propyl) thiazole-2,5-dicarboxamide]
2350 nM	11 nM	5 nM	CC[C@H](CNC(=O)c1c(C)noc1C(F)(F)F)C(=O)N[C@@H]1C(=O)N2CCCN2Cc2ccccc21 [Example 17, 3-Methyl-N-((R)-2-(((5)-11-oxo-2,3,10,11-tetrahydro-1H,5H-benzo[d]pyrazolo [1,2-a][1,2]diazepin-10-yl)carbamoyl)butyl)-5-(trifluoromethyl) isoxazole-4-carboxamide]
819 nM	12 nM	6 nM	CC[C@H](CNC(=O)c1sc(C(=O)NC(C)C)nc1C)C(=O)N[C@@H]1C(=O)N2CCCN2Cc2ccccc21 [Example 19, N^2-Isopropyl-4-methyl-N^5-((R)-2-(((S)-11-oxo-2,3,10,11-tetrahydro-1H,5H-benzo[d]pyrazolo [1,2-a][1,2]diazepin-10-yl)carbamoyl)butyl) thiazole-2,5-dicarboxamide]
5940 nM	13 nM	7 nM	Cc1nc(C(=O)NCC(F)F)sc1C(=O)NC[C@@H](C)C(=O)N[C@@H]1C(=O)N2CCCN2Cc2ccccc21 [Example 21, N^2-(2,2-Difluoroethyl)-4-methyl-N^5-((R)-2-methyl-3-oxo-3-(((S)-11-oxo-2,3,10,11-tetrahydro-1H,5H-benzo[d]pyrazolo [1,2-a][1,2]diazepin-10-yl)amino)propyl) thiazole-2,5-dicarboxamide]
3000 nM	14 nM	12 nM	CC(C)NC(=O)c1nc(Cl)c(C(=O)NC[C@@H](C)C(=O)N[C@@H]2C(=O)N3CCCN3Cc3ccccc32)s1 [Example 22, 4-Chloro-N^2-isopropyl-N^5-((R)-2-methyl-3-oxo-3-(((S)-11-oxo-2,3,10,11-tetrahydro-1H,5H-benzo[d]pyrazolo [1,2-a][1,2]diazepin-10-yl)amino)propyl) thiazole-2,5-dicarboxamide]
992 nM	16 nM	21 nM	Cc1cc(-c2nc(C)c(C(=O)NC[C@@H](C)C(=O)N[C@@H]3C(=O)N4CCCN4Cc4ccccc43)s2)on1 [Example 23, 4-Methyl-N-((R)-2-methyl-3-oxo-3-(((S)-11-oxo-2,3,10,11-tetrahydro-1H,5H-benzo[d]pyrazolo [1,2-a][1,2]diazepin-10-yl)amino)propyl)-2-(3-methylisoxazol-5-yl)thiazole-5-carboxamide]
1660 nM	21 nM	33 nM	Cc1nc(C(=O)NC(C)C)sc1C(=O)NC[C@@H](C)C(=O)N[C@@H]1C(=O)N2CCCN2Cc2ccccc21 [Example 24, N^2-Isopropyl-4-methyl-N^5-((R)-2-methyl-3-oxo-3-(((S)-11-oxo-2,3,10,11-tetrahydro-1H,5H-benzo[d]pyrazolo [1,2-a][1,2]diazepin-10-yl)amino)propyl) thiazole-2,5-dicarboxamide]
420 nM	24 nM	9 nM	CC[C@H](CNC(=O)c1onc(C)c1C)C(=O)N[C@@H]1C(=O)N2CCCN2Cc2ccccc21 [Example 25, 3,4-Dimethyl-N-((R)-2-(((S)-11-oxo-2,3,10,11-tetrahydro-1H,5H-benzo[d]pyrazolo [1,2-a][1,2]diazepin-10-yl)carbamoyl)butyl) isoxazole-5-carboxamide]
2230 nM	25 nM	101 nM	CC[C@H](CNC(=O)c1sc(C2=CCOCC2)nc1C)C(=O)N[C@@H]1C(=O)N2CCCN2Cc2ccccc21 [Example 26, 2-(3,6-Dihydro-2H-pyran-4-yl)-4-methyl-N-((R)-2-(((S)-11-oxo-2,3,10,11-tetrahydro-1H,5H-benzo[d]pyrazolo [1,2-a][1,2]diazepin-10-yl)carbamoyl)butyl) thiazole-5-carboxamide]
947 nM	26 nM	5 nM	Cc1nc(C(=O)NC(C)C)sc1C(=O)NC[C@H](C(=O)N[C@@H]1C(=O)N2CCCN2Cc2ccccc21)C1CC1 [Example 27, N^5-((R)-2-Cyclopropyl-3-oxo-3-(((S)-11-oxo-2,3,10,11-tetrahydro-1H,5H-benzo[d]pyrazolo [1,2-a][1,2]diazepin-10-yl)amino)propyl)-N^2-isopropyl-4-methylthiazole-2,5-dicarboxamide]
174 nM	37 nM	10 nM	CC[C@H](CNC(=O)c1sc(-c2ccno2)nc1C)C(=O)N[C@@H]1C(=O)N2CCCN2Cc2ccccc21 [Example 32, 2-(Isoxazol-5-yl)-4-methyl-N-((R)-2-(((S)-11-oxo-2,3,10,11-tetrahydro-1H,5H-benzo[d]pyrazolo [1,2-a][1,2]diazepin-10-yl)carbamoyl)butyl) thiazole-5-carboxamide]
847 nM	62 nM	27 nM	COCC[C@H](CNC(=O)c1sc(-c2cc(C)no2)nc1C)C(=O)N[C@@H]1C(=O)N2CCCN2Cc2ccccc21 [Example 42, N-((R)-4-Methoxy-2-(((S)-11-oxo-2,3,10,11-tetrahydro-1H,5H-benzo[d]pyrazolo [1,2-a][1,2]diazepin-10-yl)carbamoyl)butyl)-4-methyl-2-(3-methylisoxazol-5-yl)thiazole-5-carboxamide]
1740 nM	63 nM	104 nM	C[C@H](CNC(=O)c1sc(C2CC2)nc1Cl)C(=O)N[C@@H]1C(=O)N2CCCN2Cc2ccccc21 [Example 43, 4-Chloro-2-cyclopropyl-N-((R)-2-methyl-3-oxo-3-(((S)-11-oxo-2,3,10,11-tetrahydro-1H,5H-benzo[d]pyrazolo [1,2-a][1,2]diazepin-10-yl)amino)propyl) thiazole-5-carboxamide]
